Measurements taken from ChEMBL document CHEMBL1139037, “New Gly-Pro-Glu (GPE) analogues: expedite solid-phase synthesis and biological activity” (Bioorg Med Chem Lett, 2006).
Non-standard residues stand in square brackets, D forms with d. Residues, ends and D or L forms follow the SMILES beside them. Oic = O=C(O)[C@@H]1C[C@@H]2CCCC[C@@H]2N1; Hyp = O=C(O)[C@@H]1C[C@@H](O)CN1; Pip = O=C(O)[C@@H]1CCCCN1; Ac6c = NC1(C(=O)O)CCCCC1; Nle = CCCC[C@H](N)C(=O)O; Aze = O=C(O)[C@@H]1CCN1; Ac3c = NC1(C(=O)O)CC1

Experiments:
Glutamate NMDA receptor = test: Displacement of L-[3H]glutamate from glutamate receptor in rat brain synaptic membrane; format: cell membranes
[1] = molecular target: Glutamate NMDA receptor (Rattus norvegicus) (UniProt P35439+Q00959+Q00960+Q00961+Q62645+Q8VHN2+Q9R1M7); test: Neuroprotective activity in rat hippocampal neurons at 100 uM; format: functional, tissue-based; settings: Hippocampus

SMILES | Ki (Glutamate NMDA receptor) [µM] | Activity [1] [%]
NCC(=O)N1C2CCC1(C(=O)N[C@@H](CCC(=O)O)C(=O)O)CC2 | 0.48 | –
NCC(=O)NC1(C(=O)N[C@@H](CCC(=O)O)C(=O)O)CCCCC1 (H-Gly-[Ac6c]-Glu-OH) | > 100 | 27
NCC(=O)N1CC[C@H]1C(=O)N[C@@H](CCC(=O)O)C(=O)O (H-Gly-[Aze]-Glu-OH) | > 100 | 27
CC[C@H](C)[C@H](N)C(=O)N1CCC[C@H]1C(=O)N[C@@H](CCC(=O)O)C(=O)O (H-Ile-Pro-Glu-OH) | > 100 | –
N[C@@H](Cc1ccccc1)C(=O)N1CCC[C@H]1C(=O)N[C@@H](CCC(=O)O)C(=O)O (H-Phe-Pro-Glu-OH) | 4.85 | –
CCCC[C@H](N)C(=O)N1CCC[C@H]1C(=O)N[C@@H](CCC(=O)O)C(=O)O (H-[Nle]-Pro-Glu-OH) | 19.5 | –

Next, values leading:

Ki (Glutamate NMDA receptor) [µM] | Activity [1] [%] | SMILES
15.5 | – | NCC(=O)N1C[C@@H](N)C[C@H]1C(=O)N[C@@H](CCC(=O)O)C(=O)O
5.4 | – | C[C@@H](N)C(=O)N1CCC[C@H]1C(=O)N[C@@H](CCC(=O)O)C(=O)O
2.66 | – | C[C@H](N)C(=O)N1CCC[C@H]1C(=O)N[C@@H](CCC(=O)O)C(=O)O
41.3 | – | N[C@@H](CC(=O)O)C(=O)N1CCC[C@H]1C(=O)N[C@@H](CCC(=O)O)C(=O)O (H-Asp-Pro-Glu-OH)
> 100 | 27 | NCC(=O)NC1(C(=O)N[C@@H](CCC(=O)O)C(=O)O)CC1 (H-Gly-[Ac3c]-Glu-OH)
9.24 | – | NCC(=O)N1C[C@H](O)C[C@H]1C(=O)N[C@@H](CCC(=O)O)C(=O)O (H-Gly-[Hyp]-Glu-OH)
22.4 | – | NCC(=O)N1[C@H](C(=O)N[C@@H](CCC(=O)O)C(=O)O)C[C@@H]2CCCC[C@@H]21 (H-Gly-[Oic]-Glu-OH)
2.39 | – | NCC(=O)N1CCCC[C@H]1C(=O)N[C@@H](CCC(=O)O)C(=O)O (H-Gly-[Pip]-Glu-OH)
22 | – | NCCCC[C@H](N)C(=O)N1CCC[C@H]1C(=O)N[C@@H](CCC(=O)O)C(=O)O (H-Lys-Pro-Glu-OH)
